Source: ChEMBL document CHEMBL1135472 (J Med Chem, 2002)
pIC50: −log10 of the molar value. Activity calls are given as the source filed them. No cut-off for these calls is given here.

Legend:
[1] = target: T1, Polyunsaturated fatty acid lipoxygenase ALOX12 (Homo sapiens, UniProt P18054); assay: Inhibitory activity against human platelet 12-lipoxygenase (12-HLO)
T1 sequence (P18054 whole entry): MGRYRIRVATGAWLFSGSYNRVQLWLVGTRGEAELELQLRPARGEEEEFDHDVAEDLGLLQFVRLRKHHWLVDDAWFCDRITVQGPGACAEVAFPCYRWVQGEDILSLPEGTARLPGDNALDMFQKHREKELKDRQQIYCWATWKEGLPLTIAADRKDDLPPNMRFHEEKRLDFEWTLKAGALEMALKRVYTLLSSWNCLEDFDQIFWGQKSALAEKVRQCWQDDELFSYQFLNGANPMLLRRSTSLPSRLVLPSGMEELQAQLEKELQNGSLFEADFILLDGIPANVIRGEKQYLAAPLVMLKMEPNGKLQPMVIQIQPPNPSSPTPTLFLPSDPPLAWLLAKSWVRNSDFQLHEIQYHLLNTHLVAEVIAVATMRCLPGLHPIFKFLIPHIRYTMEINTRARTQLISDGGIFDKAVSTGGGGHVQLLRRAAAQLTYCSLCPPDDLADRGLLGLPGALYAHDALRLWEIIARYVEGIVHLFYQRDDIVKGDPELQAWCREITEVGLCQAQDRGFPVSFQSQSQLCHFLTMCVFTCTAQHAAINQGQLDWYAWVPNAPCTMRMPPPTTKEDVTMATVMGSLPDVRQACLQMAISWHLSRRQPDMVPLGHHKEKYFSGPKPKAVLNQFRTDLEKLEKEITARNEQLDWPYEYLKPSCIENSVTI

[2] = target: T2, Seed linoleate 13S-lipoxygenase-1 (Glycine max, UniProt P08170); assay: Inhibitory activity against soybean 1-lipoxygenase (SLO)
T2 sequence (P08170 whole entry): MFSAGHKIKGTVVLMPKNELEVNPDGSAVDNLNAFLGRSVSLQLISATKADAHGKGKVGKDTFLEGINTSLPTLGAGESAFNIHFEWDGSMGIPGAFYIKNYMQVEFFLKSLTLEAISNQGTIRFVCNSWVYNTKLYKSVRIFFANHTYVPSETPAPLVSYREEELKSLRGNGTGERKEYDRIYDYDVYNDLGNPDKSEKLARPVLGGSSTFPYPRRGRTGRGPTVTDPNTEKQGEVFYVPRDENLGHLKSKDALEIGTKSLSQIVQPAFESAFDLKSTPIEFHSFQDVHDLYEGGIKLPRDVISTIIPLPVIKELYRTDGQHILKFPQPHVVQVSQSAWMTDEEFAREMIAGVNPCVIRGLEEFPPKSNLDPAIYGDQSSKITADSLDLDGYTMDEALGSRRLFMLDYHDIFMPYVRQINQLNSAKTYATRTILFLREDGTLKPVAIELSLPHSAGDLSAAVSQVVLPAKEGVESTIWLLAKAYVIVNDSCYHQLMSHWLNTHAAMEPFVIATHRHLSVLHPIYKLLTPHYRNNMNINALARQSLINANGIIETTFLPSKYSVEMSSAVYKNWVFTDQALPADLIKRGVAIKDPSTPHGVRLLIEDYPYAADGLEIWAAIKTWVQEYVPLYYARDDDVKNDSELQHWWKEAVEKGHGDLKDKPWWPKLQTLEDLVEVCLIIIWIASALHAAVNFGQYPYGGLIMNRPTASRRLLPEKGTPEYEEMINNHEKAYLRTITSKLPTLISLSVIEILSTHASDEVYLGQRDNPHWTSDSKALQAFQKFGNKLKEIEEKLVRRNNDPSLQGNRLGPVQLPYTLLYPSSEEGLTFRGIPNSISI

[3] = Inhibition ratio of human reticulocyte 15-lipoxygenase (15-HLO)/ human platelet 12-lipoxygenase (12-HLO); NI is no inhibition
[4] = target: T3, Polyunsaturated fatty acid lipoxygenase ALOX15 (Homo sapiens) (UniProt P16050); assay: Inhibitory activity against human reticulocyte 15-lipoxygenase (15-HLO); NI is no inhibition
T3 sequence (whole entry): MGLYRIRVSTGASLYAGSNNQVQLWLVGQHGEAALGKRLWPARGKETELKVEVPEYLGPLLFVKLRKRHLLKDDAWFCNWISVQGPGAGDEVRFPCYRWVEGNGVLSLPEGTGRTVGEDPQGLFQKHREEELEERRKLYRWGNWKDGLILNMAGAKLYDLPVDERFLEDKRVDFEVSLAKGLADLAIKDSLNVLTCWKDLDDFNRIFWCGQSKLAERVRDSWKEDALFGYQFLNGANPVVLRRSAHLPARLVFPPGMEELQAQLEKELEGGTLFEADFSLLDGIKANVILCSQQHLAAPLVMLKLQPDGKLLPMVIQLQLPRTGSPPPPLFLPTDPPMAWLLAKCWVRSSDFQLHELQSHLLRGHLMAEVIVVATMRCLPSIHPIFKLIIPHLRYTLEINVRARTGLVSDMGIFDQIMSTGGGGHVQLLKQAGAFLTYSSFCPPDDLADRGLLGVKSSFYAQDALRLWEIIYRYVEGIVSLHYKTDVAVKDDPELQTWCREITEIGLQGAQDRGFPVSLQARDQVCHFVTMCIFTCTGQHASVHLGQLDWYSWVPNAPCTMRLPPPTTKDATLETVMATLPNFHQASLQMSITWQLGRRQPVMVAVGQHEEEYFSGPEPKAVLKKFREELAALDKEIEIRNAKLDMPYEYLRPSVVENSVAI

[5] = target: T4, Polyunsaturated fatty acid lipoxygenase ALOX12 (Homo sapiens) (UniProt P18054); assay: percent inhibition against human platelet 12-lipoxygenase (12-HLO); NI is no inhibition
T4 sequence (whole entry): T1 sequence (P18054 whole entry)

[6] = target: T5, Seed linoleate 13S-lipoxygenase-1 (Glycine max) (UniProt P08170); assay: percent inhibition against soybean 1-lipoxygenase (SLO);NI is no inhibition
T5 sequence (whole entry): T2 sequence (P08170 whole entry)

[7] = target: T4, Polyunsaturated fatty acid lipoxygenase ALOX12 (Homo sapiens); assay: % inhibition against human platelet 12-lipoxygenase (12-HLO); conditions: concentration not given here
[8] = target: T3, Polyunsaturated fatty acid lipoxygenase ALOX15 (Homo sapiens); assay: Inhibitory activity against human reticulocyte 15-lipoxygenase (15-HLO); conditions: concentration not given here
[9] = target: T5, Seed linoleate 13S-lipoxygenase-1 (Glycine max); assay: % inhibition against soybean 1-lipoxygenase (SLO)
[10] = target: T3, Polyunsaturated fatty acid lipoxygenase ALOX15 (Homo sapiens); assay: Compound was evaluated for the percent increase in activation concentration of human reticulocyte 15-lipoxygenase (15-HLO)
[11] = target: T6, Polyunsaturated fatty acid lipoxygenase ALOX15 (Homo sapiens, UniProt P16050); assay: Concentration that cause 50% activation of human reticulocyte 15-lipoxygenase (15-HLO)
T6 sequence (P16050 whole entry): T3 sequence (whole entry)

With `COc1cc(C[C@@H](C)[C@@H](C)Cc2ccc(O)c(O)c2)ccc1O` as the compound, how does the pIC50 [1] read?
The pIC50 was 4.85.

And the pIC50 [2]?
Its pIC50 is 6.77.

With `C[C@H](Cc1cc(O)c(O)cc1Cl)[C@@H](C)Cc1cc(O)c(O)cc1Cl` as the compound, how does the pIC50 [1] read?
The pIC50 was 6.44.

What about the pIC50 [2] of the same compound?
Its pIC50 is 7.19.

For `COc1cc(Cl)c(C[C@@H](C)[C@@H](C)Cc2cc(OC)c(OC)cc2Cl)cc1OC`, which inhibition [3] is on record?
The inhibition was “inactive”.

What about the inhibition [4] of the same compound?
The inhibition was “inactive”.

What about the inhibition [5] of the same compound?
The inhibition was “inactive”.

What about the inhibition [6] of the same compound?
The inhibition was “inactive”.

With `C[C@H](Cc1cc(O)c(O)cc1Br)[C@@H](C)Cc1cc(O)c(O)cc1Br` as the compound, how does the pIC50 [1] read?
Its pIC50 is 6.37.

And the pIC50 [2]?
Its pIC50 is 7.24.

Which results are given for `COc1cc(Br)c(C[C@@H](C)[C@@H](C)Cc2cc(OC)c(OC)cc2Br)cc1OC`?
inhibition [3]: inactive; inhibition [4]: inactive; inhibition [5]: inactive; inhibition [6]: inactive

What does the source list for `COc1cc(N)c(C[C@@H](C)[C@@H](C)Cc2cc(OC)c(OC)cc2N)cc1OC`?
inhibition [7]: 0%; inhibition [8]: 0%; inhibition [9]: 0%

What does the source list for `CCc1cc(O)c(O)cc1C[C@@H](C)[C@@H](C)Cc1cc(O)c(O)cc1CC`?
pIC50 [1]: 5.51; pIC50 [2]: 6.85

Which activation [10] does the source give for `CCC(=O)Oc1ccc(C[C@@H](C)[C@@H](C)Cc2ccc(OC(=O)CC)c(OC(=O)CC)c2)cc1OC(=O)CC` here?
Its activation is 22%.

What about the inhibition [7] of the same compound?
The inhibition was 0%.

And the inhibition [9]?
The inhibition was 0%.

And the AC50 [11]?
The AC50 was 300 nM.

Which activation [10] does the source give for `CC(C)C(=O)Oc1ccc(C[C@@H](C)[C@@H](C)Cc2ccc(OC(=O)C(C)C)c(OC(=O)C(C)C)c2)cc1OC(=O)C(C)C` here?
The activation was 70%.

What about the inhibition [7] of the same compound?
Its inhibition is 0%.

What about the inhibition [9] of the same compound?
Its inhibition is 0%.

And the AC50 [11]?
The AC50 was 500 nM.

Which results are given for `CC(=O)Oc1ccc(C[C@@H](C)[C@@H](C)Cc2ccc(OC(C)=O)c(OC(C)=O)c2)cc1OC(C)=O`?
inhibition [7]: 0%; inhibition [8]: 0%; inhibition [9]: 0%

With `C[C@H](Cc1cc(O)c(O)cc1[N+](=O)[O-])[C@@H](C)Cc1cc(O)c(O)cc1[N+](=O)[O-]` as the compound, how does the pIC50 [1] read?
The pIC50 was 6.44.

Which activation [10] does the source give for `CCCC(=O)Oc1ccc(C[C@@H](C)[C@@H](C)Cc2ccc(OC(=O)CCC)c(OC(=O)CCC)c2)cc1OC(=O)CCC` here?
The activation was 77%.

And the inhibition [7]?
The inhibition was 0%.

What about the inhibition [9] of the same compound?
The inhibition was 0%.

And the AC50 [11]?
Its AC50 is 300 nM.

What does the source list for `C[C@H](Cc1ccc(OCOC(=O)C(C)(C)C)c(OCOC(=O)C(C)(C)C)c1)[C@@H](C)Cc1ccc(OCOC(=O)C(C)(C)C)c(OCOC(=O)C(C)(C)C)c1`?
inhibition [7]: 0%; inhibition [8]: 0%; inhibition [9]: 0%

Which results are given for `CCC(=O)Oc1cc(C[C@@H](C)[C@@H](C)Cc2cc(OC(=O)CC)c(OC(=O)CC)cc2[N+](=O)[O-])c([N+](=O)[O-])cc1OC(=O)CC`?
inhibition [7]: 0%; inhibition [8]: 0%; inhibition [9]: 0%

Which results are given for `COc1cc(C[C@@H](C)[C@@H](C)Cc2cc(OC)c(OC)cc2C(C)=O)c(C(C)=O)cc1OC`?
inhibition [3]: inactive; inhibition [4]: inactive; inhibition [5]: inactive; inhibition [6]: inactive

With `CC(=O)c1cc(O)c(O)cc1C[C@@H](C)[C@@H](C)Cc1cc(O)c(O)cc1C(C)=O` as the compound, how does the pIC50 [1] read?
The pIC50 was 4.59.

For `COc1cc(C[C@@H](C)[C@@H](C)Cc2cc(OC)c(OC)cc2NC(C)=O)c(NC(C)=O)cc1OC`, which inhibition [3] is on record?
Its inhibition is “inactive”.

What about the inhibition [4] of the same compound?
Its inhibition is “inactive”.

And the inhibition [5]?
The inhibition was “inactive”.

What about the inhibition [6] of the same compound?
The inhibition was “inactive”.

For `CCCCCC(=O)Oc1ccc(C[C@@H](C)[C@@H](C)Cc2ccc(OC(=O)CCCCC)c(OC(=O)CCCCC)c2)cc1OC(=O)CCCCC`, which activation [10] is on record?
Its activation is 70%.

What about the inhibition [7] of the same compound?
The inhibition was 0%.

What about the inhibition [9] of the same compound?
The inhibition was 0%.

And the AC50 [11]?
The AC50 was 200 nM.

Which results are given for `COc1cc(C[C@@H](C)[C@@H](C)Cc2cc(OC)c(OC)cc2[N+](=O)[O-])c([N+](=O)[O-])cc1OC`?
inhibition [7]: 0%; inhibition [8]: 0%; inhibition [9]: 0%

With `COc1ccc(C[C@@H](C)[C@@H](C)Cc2ccc(OC)c(OC)c2)cc1OC` as the compound, how does the inhibition [3] read?
Its inhibition is “inactive”.

And the inhibition [4]?
Its inhibition is “inactive”.

And the inhibition [5]?
The inhibition was “inactive”.

What about the inhibition [6] of the same compound?
Its inhibition is “inactive”.

What does the source list for `C[C@H](Cc1ccc(O)c(O)c1)[C@@H](C)Cc1ccc2c(c1)OC(C)(C)O2`?
pIC50 [1]: 5.66; pIC50 [2]: 6.85
